# Values quoted from earlier work as cited in patent publication US20230174671A1, “COMPOSITIONS AND METHODS FOR TREATING VIRAL INFECTIONS” (BIOVISTA, INC., priority 2020, published 2023).
# Counter-ions that a name gives are not always drawn.
# How the values were obtained:
# SARS-CoV = conditions: HeLa cells expressing TMPRSS2; Kawase et al, 2012
# [1] = system: human coronavirus NL63 (HCoV-NL63); conditions: HeLa cells expressing TMPRSS2; Kawase et al, 2012
compound,measurement,setting,value
CN(C)C(=O)COC(=O)Cc1ccc(OC(=O)c2ccc(NC(=N)N)cc2)cc1 [camostat mesylate],block of infection by SARS-CoV,SARS-CoV,partially block infection
same,block of infection by human coronavirus NL63 (HCoV-NL63),[1],partially block infection
